Test results from PMC4071600, “Amino Alcohols from the Ascidian Pseudodistoma sp” (Marine Drugs, 2014).

biological target: T1, Na^+/K^+-ATPase; assay: Na+/K+-ATPase inhibition assay (by reference); assay type: biochemical
T1 construct: gene ATP1A1; with Sodium/potassium-transporting ATPase subunit beta-1
Description: Na+/K+-ATPase inhibition assay (by reference) on Na^+/K^+-ATPase

| IC50 | Compound |
| --- | --- |
| > 200 µM | CCCCCCCCCCC[C@H](O)CNC(C)=O [compound 14, Compound 14] |
| 78.4 µM | CCCCCCCC/C=C/C[C@H](O)[C@H](C)N [compound 2, Pseudoaminol B] |
| 46.8 µM | CCCCCCCCCCC[C@H](O)[C@H](C)N [compound 9, Compound 9] |
| 190 µM | CCCCCCCC/C=C/C[C@H](O)CN [compound 4, Pseudoaminol D] |
| 71.4 µM | CCCCCCCCC/C=C/[C@@H]1OC(=O)N[C@H]1C [compound 8, Compound 8] |
| > 200 µM | CC/C=C\C/C=C\CC/C=C/C=C/[C@H](O)[C@H](C)NCC(=O)O [compound 7, Pseudoaminol G] |
| > 200 µM | CCCCCCCCC/C=C/[C@H](O)[C@H](C)NCC(=O)O [compound 6, Pseudoaminol F] |
| 130 µM | CCCCCCCCCCC[C@H](O)CN [compound 13, Compound 13] |
| 62 µM | CCCCCCCCC/C=C/[C@H](O)[C@H](C)N [compound 1, (E)-2-aminotetradec-4-en-3-ol] |
| > 200 µM | CCCCCCC/C=C/C=C/[C@H](O)[C@H](C)N [compound 3, Pseudoaminol C] |
| 101 µM | CC/C=C\C/C=C\CC/C=C/C=C/[C@H](O)[C@H](C)N [compound 5, Pseudoaminol E] |
| 118 µM | CCCCCCCCCCC[C@H](O)[C@H](C)NC(C)=O [compound 10, Compound 10] |
| 108 µM | CCCCCCCCCCC[C@H](OC(=O)c1ccccc1)[C@H](C)NC(=O)c1ccccc1 [compound 12, Compound 12] |
